According to the supplement of paper PMC12317010:
Counter-ions that a name gives are not always drawn.

Assay: collision cross section in nitrogen (drift tube, single-field); higher = larger gas-phase ion size
[1] = ion type: [M+H], ion source: APCI, ion mode: Positive
[2] = ion type: [M+H], ion source: ESI, ion mode: Positive
[3] = ion type: [M-H], ion source: ESI, ion mode: Negative
[4] = ion type: [M+Na], ion source: ESI, ion mode: Positive
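Also: chemical standards at 10 µM analysed by drift tube IMS-QTOF MS in about 3.95 torr nitrogen, mean of duplicate injections differing ≤1%, mass error below 10 ppm.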

Row | Compound | collision cross section in nitrogen [1] [Å²] | collision cross section in nitrogen [2] [Å²] | collision cross section in nitrogen [3] [Å²] | collision cross section in nitrogen [4] [Å²] | further results
1 | CN(C)CCC(c1ccc(Cl)cc1)c1ccccn1 (configuration not stated) [Chlorpheniramine maleate] | 164 | 164.6 | – | – | –
2 | CN(C)CCCN1c2ccccc2Sc2ccc(Cl)cc21 [Chlorpromazine hydrochloride] | 170.8 | 171.2 | – | – | –
3 | CC(C)OC(=O)Nc1cccc(Cl)c1 [Chlorpropham] | – | – | 148.4 | – | –
4 | CCOP(=O)(OCC)Oc1nc(Cl)c(Cl)cc1Cl [Chlorpyrifos oxon] | 162.3 | 162.7 | – | 171 | –
5 | NC(=S)c1c(Cl)cccc1Cl [Chlorthiamid] | – | – | 135.9 | – | –
6 | C[N+](C)(C)CCO [Choline hydroxide] | – | – | – | – | collision cross section in nitrogen (ion source: ESI, ion mode: Positive, ion type: [M]+ (permanent cation)): 117.7 Å²
7 | O=c1cc(-c2ccccc2)oc2cc(O)cc(O)c12 [Chrysin] | 155.4 | 154.8 | 157.7 | – | –
8 | Cc1ccccc1CO[C@@H]1C[C@@]2(C(C)C)CC[C@]1(C)O2 [Cinmethylin] | – | – | – | 169.7 | –
9 | CCOCCOC(=O)C=Cc1ccc(OC)cc1 [Cinoxate] | – | – | – | 155.6 | –
10 | CC(C)(Oc1ccc(C2CC2(Cl)Cl)cc1)C(=O)O (configuration not stated) [Ciprofibrate] | – | – | 171.9 | – | –
11 | CCOC(=O)CC(CC(=O)OCC)(OC(C)=O)C(=O)OCC [Citric acid, triethyl ester, acetate] | – | – | – | 175.4 | –
12 | CC(C)=CCCC(C)CC(=O)O (configuration not stated) [Citronellic acid] | – | – | 148.8 | – | –
13 | Nc1nc(Cl)nc2c1ncn2[C@H]1C[C@H](O)[C@@H](CO)O1 [Cladribine] | 157.2 | 157 | 159.5 | 165.8 | –
14 | CCSC(C)CC1CC(=O)C(C(CC)=NOC/C=C/Cl)=C(O)C1 (configuration not stated) [Clethodim] | 187.7 | 187.7 | 184.6 | 184.9 | –
15 | C#CCOC(=O)[C@@H](C)Oc1ccc(Oc2ncc(Cl)cc2F)cc1 [Clodinafop-propargyl] | – | 178 | – | 176.2 | –
16 | CCc1c(C(=O)O)c(=O)cnn1-c1ccc(Cl)cc1 [Clofencet-potassium] | 159.2 | 159 | 160.5 | 175.3 | –
17 | CN(C)CCCN1c2ccccc2CCc2ccc(Cl)cc21 [Clomipramine hydrochloride] | 174.5 | 174.5 | – | – | –
18 | Clc1cccc(Cl)c1NC1=NCCN1 [Clonidine hydrochloride] | 147.1 | 146.5 | 145.8 | – | –
19 | CCCCCC(C)OC(=O)COc1ccc(Cl)c2cccnc12 (configuration not stated) [Cloquintocet-mexyl] | 182.1 | 181.9 | – | 195.1 | –
20 | CCOc1nc(F)cc2nc(S(=O)(=O)Nc3c(Cl)cccc3C(=O)OC)nn12 [Cloransulam-methyl] | 191 | 190.7 | 190.2 | 192 | –

Row | Compound | collision cross section in nitrogen [1] [Å²] | collision cross section in nitrogen [2] [Å²] | collision cross section in nitrogen [3] [Å²] | collision cross section in nitrogen [4] [Å²] | further results
21 | Oc1ccc(Cl)cc1Cc1ccccc1 [Clorophene] | – | – | 149.3 | – | –
22 | CN/C(=N\[N+](=O)[O-])NCc1cnc(Cl)s1 [Clothianidin] | – | – | 151.8 | – | –
23 | COc1cc2c(c(OC)c1OC)-c1ccc(OC)c(=O)cc1[C@@H](NC(C)=O)CC2 [Colchicine] | 197 | 195.9 | 197.3 | 204.3 | –
24 | O=[N+]([O-])O [Copper(II) nitrate trihydrate] | – | – | 104.1 | – | –
25 | C[C@]12C[C@H](O)[C@H]3[C@@H](CCC4=CC(=O)CC[C@@]43C)[C@@H]1CC[C@@H]2C(=O)CO [Corticosterone] | – | – | – | 212.4 | –
26 | CN1C(=O)CC[C@H]1c1cccnc1 [Cotinine] | – | 144.8 | – | – | –
27 | Cc1ccccc1OP(=O)(Oc1ccccc1)Oc1ccccc1 [Cresyl diphenyl phosphate] | 178.3 | 178 | – | 188.4 | –
28 | O=C(O)c1cc(=O)c2c(OCC(O)COc3cccc4oc(C(=O)O)cc(=O)c34)cccc2o1 [Cromolyn sodium] | – | 208.8 | 186 | 211.8 | –
29 | CC=CC(=O)N(CC)c1ccccc1C [Crotamiton] | 145.3 | 145.7 | – | 157 | –
30 | CNP(=O)(OC)Oc1ccc(C(C)(C)C)cc1Cl (configuration not stated) [Crufomate] | 165.2 | 165 | – | 176.3 | –
31 | COc1cc(/C=C/C(=O)CC(=O)/C=C/c2ccc(O)c(OC)c2)ccc1O [Curcumin] | 202.8 | – | 187.7 | – | –
32 | CCNc1nc(Cl)nc(NC(C)(C)C#N)n1 [Cyanazine] | 155.6 | 155.4 | – | – | –
33 | O=P1(N(CCCl)CCCl)NCCCO1 (configuration not stated) [Cyclophosphamide monohydrate] | 148 | 147.6 | – | 154.6 | –
34 | O=P1(N(CCCl)CCCl)NCCCO1 (configuration not stated) [Cyclophosphamide] | 147.8 | 147.7 | – | 154.6 | –
35 | CCCCOC(=O)[C@@H](C)Oc1ccc(Oc2ccc(C#N)cc2F)cc1 [Cyhalofop-butyl] | – | – | – | 191.2 | –
36 | CC(C1CC1)C(O)(Cn1cncn1)c1ccc(Cl)cc1 (configuration not stated) [Cyproconazole] | 170.6 | 170.2 | – | – | –
37 | Cc1cc(C2CC2)nc(Nc2ccccc2)n1 [Cyprodinil] | 153.1 | 153.4 | – | – | –
38 | Nc1nc(N)nc(NC2CC2)n1 [Cyromazine] | 135.6 | 135.9 | – | – | –
39 | CN(C)NC(=O)CCC(=O)O [Daminozide] | – | – | 135.2 | 142.5 | –

Continued, in another order:

Row | collision cross section in nitrogen [1] [Å²] | collision cross section in nitrogen [2] [Å²] | collision cross section in nitrogen [3] [Å²] | collision cross section in nitrogen [4] [Å²] | Compound | further results
40 | 162.8 | 162.4 | – | – | CSc1nc(NC2CC2)nc(NC(C)(C)C)n1 [Cybutryne] | –
41 | – | – | 139.6 | – | O=S(=O)(O)NC1CCCCC1 [Cyclamic acid] | –
42 | – | – | 156.3 | – | O=C(O)C1(C(=O)Nc2ccc(Cl)cc2Cl)CC1 [Cyclanilide] | –
43 | 143.1 | 143.5 | – | 156.7 | N=c1ccn2c(n1)O[C@H]1[C@H](O)[C@@H](CO)O[C@H]12 [Cyclocytidine] | –
44 | – | 201.9 | 201.5 | – | CC(=O)O[C@]1(C(C)=O)CC[C@H]2[C@@H]3C=C(Cl)C4=CC(=O)[C@@H]5C[C@@H]5[C@]4(C)[C@H]3CC[C@@]21C [Cyproterone acetate] | –
45 | – | – | – | 157.1 | Nc1ccn([C@@H]2O[C@H](CO)[C@@H](O)[C@@H]2O)c(=O)n1 [Cytarabine hydrochloride] | –
46 | – | – | – | 156.9 | Nc1ccn([C@@H]2O[C@H](CO)[C@@H](O)[C@@H]2O)c(=O)n1 [Cytarabine] | –
47 | 117.3 | 118.8 | – | – | Nc1ccnc(=O)[nH]1 [Cytosine] | –
48 | – | 158.6 | 163.8 | – | O=C1c2ccccc2C(=O)C1c1ccc2ccccc2n1 [D & C Yellow 11] | –
49 | – | – | 226.8 | – | O=C1OC2(c3cc(Br)c(O)c(Br)c3Oc3c2cc(Br)c(O)c3Br)c2c(Cl)c(Cl)c(Cl)c(Cl)c21 [D&C Red 27] | –
50 | 176.9 | 176.7 | – | – | Cc1ccc(Nc2ccc(O)c3c2C(=O)c2ccccc2C3=O)cc1 [D&C Violet 2] | collision cross section in nitrogen (ion type: [M+], ion source: APCI, ion mode: Positive): 174 Å²
51 | – | – | 132.3 | 143.4 | OC[C@@H](O)[C@@H](O)[C@H](O)[C@@H](O)CO [D-Glucitol] | –
52 | – | – | 133.2 | – | O=C(O)[C@H](O)[C@@H](O)[C@H](O)[C@H](O)CO [D-Gluconic acid] | –
53 | – | – | 171.4 | 175.3 | OC[C@@H](O)[C@@H](O[C@@H]1O[C@H](CO)[C@H](O)[C@H](O)[C@H]1O)[C@H](O)[C@@H](O)CO [D-Lactitol monohydrate] | –
54 | – | – | 132.5 | 141.5 | OC[C@@H](O)[C@@H](O)[C@H](O)[C@H](O)CO [D-Mannitol] | –
55 | 143.5 | 143.6 | – | 160.2 | CCN(CC)C(=O)c1cccc(C)c1 [DEET] | –
56 | – | – | 180 | – | O=C1CN(N=Cc2ccc(-c3ccc([N+](=O)[O-])cc3)o2)C(=O)N1 [Dantrolene sodium] | –
57 | 155.5 | 155 | 157.9 | 170.7 | Nc1ccc(S(=O)(=O)c2ccc(N)cc2)cc1 [Dapsone] | –
58 | 188.3 | 188 | 186.1 | 207.3 | CC(C)(C)c1cc(/C=C2\SC(=N)NC2=O)cc(C(C)(C)C)c1O [Darbufelone mesylate] | –
59 | – | – | 144.6 | – | O=C(O)CCCCCCCCC(=O)O [Decanedioic acid] | –
60 | – | – | 149.5 | – | CCCCCCCCCC(=O)O [Decanoic acid] | –
61 | – | – | 155 | – | CCCCCCCCCCOC(C)=O [Decyl acetate] | –
62 | – | – | 192.6 | 187.7 | CCCCCCCCCCO[C@@H]1O[C@H](CO)[C@@H](O)[C@H](O)[C@H]1O [Decyl beta-D-glucopyranoside] | –
